Entries after “also recorded” stand apart in the source; their conditions may differ.
Biological target: T1, human α1β2γ2 GABAA receptors (Homo sapiens, UniProt P14867+P47870)
T1 construct: expressed in transfected cells
Assay: FMP assay at GABAA receptors in HEK293 cells
Format: cell-based
Conditions: for Activity at α1β2γ2 GABAA receptors: 2 tested up to 100 µM
From the text: For this purpose we chose the major GABAA receptor subtype in the brain, α1β2γ2, and used the FMP assay for functional assessment as previously reported ([Falk-Petersen et al., 2020]). This assay detects changes in membrane potential for an average cell population through changes in fluorescence of a membrane pre-equilibrated fluorescent blue dye. It therefore provides an indirect measure of activity with the advantage of being able to discern between GAT substrates and inhibitors ([Kragholm et al., 2013]; [Al-Khawaja et al., 2014]; [Kickinger et al., 2020]).
The tsA201 cell line (a transformed HEK293 cell line), the Flp-In CHO cell lines stably expressing human (h) GATs and the HEK293 cell line stably expressing human α1β2γ2 GABAA receptors have been described previously and were cultured accordingly ([Al-Khawaja et al., 2014]; [Falk-Petersen et al., 2020]). […]
The FMP assay performed on human α1β2γ2 GABAA receptors in HEK293 cells was performed as described and data analyzed accordingly ([Falk-Petersen et al., 2020]). […] Test compound solutions were prepared at 4x concentration in assay buffer and added to ligand plates pre-heated at 37°C for 10–15 min in the FLEXstation3 plate reader (Molecular Devices). After incubation, 33.3 µL test compound solution (4x) was automatically transferred to each well in the cell plate and the signal was measured for 90 s by measuring emission at 560 nm caused by excitation at 530 nm. […] Data obtained in the FMP assay are given as relative changes in fluorescence units (ΔRFU) by subtracting the average of the baseline fluorescence signal from the peak fluorescence signal after compound addition. […] A Gaddum-Schild plot was performed according to the equation: log(dr-1) = log(B)+pA2, where B is the concentration of the inhibitor, pA2 is the negative logarithm of the dissociation constant KB, and the dose-ratio dr is equal to the EC′50/EC50, where EC′50 and EC50 are determined in the presence and absence of the different inhibitor concentrations, respectively. […]

T1 sequence (P14867 28-456): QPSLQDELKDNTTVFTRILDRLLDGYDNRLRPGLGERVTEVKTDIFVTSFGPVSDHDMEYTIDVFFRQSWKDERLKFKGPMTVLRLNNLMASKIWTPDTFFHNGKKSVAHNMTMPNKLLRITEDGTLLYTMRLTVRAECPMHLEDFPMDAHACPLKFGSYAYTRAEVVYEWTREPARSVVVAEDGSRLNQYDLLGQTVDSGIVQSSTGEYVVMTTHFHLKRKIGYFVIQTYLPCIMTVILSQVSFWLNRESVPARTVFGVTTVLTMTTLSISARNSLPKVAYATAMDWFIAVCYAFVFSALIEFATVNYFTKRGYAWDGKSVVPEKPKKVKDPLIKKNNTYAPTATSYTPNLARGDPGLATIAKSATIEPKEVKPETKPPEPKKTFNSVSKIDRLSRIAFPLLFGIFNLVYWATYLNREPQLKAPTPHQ
T1 sequence (P47870 25-512 limits assumed): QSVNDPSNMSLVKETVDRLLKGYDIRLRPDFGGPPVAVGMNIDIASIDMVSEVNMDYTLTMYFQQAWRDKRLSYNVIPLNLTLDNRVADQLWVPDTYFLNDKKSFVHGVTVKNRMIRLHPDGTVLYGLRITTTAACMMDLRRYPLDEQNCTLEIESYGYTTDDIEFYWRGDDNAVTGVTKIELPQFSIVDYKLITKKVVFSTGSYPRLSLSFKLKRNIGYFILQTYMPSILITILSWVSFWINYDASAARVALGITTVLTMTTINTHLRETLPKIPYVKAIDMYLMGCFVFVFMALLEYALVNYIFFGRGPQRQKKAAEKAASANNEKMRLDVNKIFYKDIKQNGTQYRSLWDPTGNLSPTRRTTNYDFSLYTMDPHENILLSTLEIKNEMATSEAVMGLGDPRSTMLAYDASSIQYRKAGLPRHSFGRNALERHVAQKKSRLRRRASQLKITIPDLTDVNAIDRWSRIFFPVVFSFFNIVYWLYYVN
T1 sequence (P18507 40-475 partner): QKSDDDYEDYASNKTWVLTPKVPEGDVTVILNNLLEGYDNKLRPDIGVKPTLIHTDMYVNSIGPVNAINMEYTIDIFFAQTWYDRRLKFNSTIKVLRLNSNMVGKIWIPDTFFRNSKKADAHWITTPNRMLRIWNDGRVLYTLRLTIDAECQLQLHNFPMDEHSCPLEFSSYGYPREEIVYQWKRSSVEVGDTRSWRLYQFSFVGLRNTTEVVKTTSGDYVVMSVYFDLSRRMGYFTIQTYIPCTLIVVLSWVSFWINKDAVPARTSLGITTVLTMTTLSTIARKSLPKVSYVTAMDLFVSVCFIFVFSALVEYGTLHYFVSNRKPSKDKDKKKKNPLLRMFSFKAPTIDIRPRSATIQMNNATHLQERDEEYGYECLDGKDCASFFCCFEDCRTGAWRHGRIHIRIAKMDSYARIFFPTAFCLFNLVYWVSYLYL

| Structure (SMILES) | Activity at α1β2γ2 GABAA receptors | EC50 (agonist activity, HEK293 cells) [µM] |
| --- | --- | --- |
| CN[C@@]12CC[C@H](C(=O)O)[C@@H]1C2 [compound 2] | completely devoid of activity; also recorded: inactive | – |
| N[C@@]12CC[C@H](C(=O)O)[C@@H]1C2 [bicyclo-GABA, (1S,2S,5R)-5-aminobicyclo[3.1.0]hexane-2-carboxylic acid] | low micromolar agonistic activity | 5.1 |

Source: article PMC8476755 (Frontiers in Chemistry, 2021)
